ChEMBL document CHEMBL1127102, “Structure-activity relationships of 2,3-benzodiazepine compounds with glutamate antagonistic action” (Bioorg Med Chem Lett, 1993)

What was measured:
Mus musculus [1] = assay: Tested in vivo for anticonvulsant activity using MES, MMS and IS relative potency compared to GYKI 52466; format: functional
Rattus norvegicus [2] = organism: Rattus norvegicus; assay: Tested in vitro for the relative potency against neuronal responses mediated by the non-NMDA type glutamate receptor compared to GYKI 52466; format: functional
Rattus norvegicus [3] = organism: Rattus norvegicus; assay: Tested in vitro for the anticonvulsant activity (IC50 value was determined after 30 min perfusion application by MES test); format: functional, organism-based; conditions: 0.5 h
Mus musculus [4] = assay: Tested in vivo for the anticonvulsant activity by MES test. 95% confidence limits are in brackets; format: functional
Mus musculus [5] = assay: Tested in vivo for the anticonvulsant activity by IS test.; format: functional
Mus musculus [6] = assay: Tested in vivo for the anticonvulsant activity by MMS test. 95% confidence limits are in brackets; format: functional
Mus musculus [7] = organism: Mus musculus; assay: Tested in vitro for the oral anticonvulsant activity by MES test; format: functional, organism-based
Mus musculus [8] = assay: Tested in vivo for the oral anticonvulsant activity by MES test; format: functional

Structure (SMILES): CC1Cc2cc3c(cc2C(c2ccc(N)cc2)=NN1C(=O)CN(C)C)OCO3 (centres undefined)
- Relative potency (Mus musculus [1]): 0

Structure (SMILES): CC1Cc2cc3c(cc2C(c2ccc(N)cc2)=NN1C(=O)c1ccccc1)OCO3 (centres undefined)
- Relative potency (Mus musculus [1]): 0

Structure (SMILES): CC1Cc2cc3c(cc2C(c2ccc(N)cc2)=NN1C(=O)C(F)(F)F)OCO3 (centres undefined)
- Relative potency (Mus musculus [1]): 0

Structure (SMILES): CC1Cc2cc3c(cc2C(c2ccc(N)cc2)=NN1C(=O)Cc1ccccc1)OCO3 (centres undefined)
- Relative potency (Mus musculus [1]): 0

Structure (SMILES): CC1Cc2cc3c(cc2C(c2ccc(N)cc2)=NN1C(=O)CC#N)OCO3 (centres undefined)
- Relative potency (Mus musculus [1]): 0.21

Structure (SMILES): CNCC(=O)N1N=C(c2ccc(N)cc2)c2cc3c(cc2CC1C)OCO3 (centres undefined)
- Relative potency (Rattus norvegicus [2]): 0.02
- Relative potency (Mus musculus [1]): 0

Structure (SMILES): CC1Cc2cc3c(cc2C(c2ccc(N)cc2)=NN1C(=O)C(C)(C)C)OCO3 (centres undefined)
- Relative potency (Mus musculus [1]): 0

Structure (SMILES): CC(N)C(=O)N1N=C(c2ccc(N)cc2)c2cc3c(cc2CC1C)OCO3 (centres undefined)
- Relative potency (Rattus norvegicus [2]): 0
- Relative potency (Mus musculus [1]): 0.08

Structure (SMILES): CCCCC(=O)N1N=C(c2ccc(N)cc2)c2cc3c(cc2CC1C)OCO3 (centres undefined)
- Relative potency (Rattus norvegicus [2]): 0.22
- Relative potency (Mus musculus [1]): 0

Structure (SMILES): CC1Cc2cc3c(cc2C(c2ccc(N)cc2)=NN1C(=O)Nc1ccccc1)OCO3 (centres undefined)
- Relative potency (Mus musculus [1]): 0.13

Structure (SMILES): CC1Cc2cc3c(cc2C(c2ccc(N)cc2)=NN1C(=O)C1CC1)OCO3 (centres undefined)
- Relative potency (Rattus norvegicus [2]): 1.48
- Relative potency (Mus musculus [1]): 1.66

Structure (SMILES): COCC(=O)N1N=C(c2ccc(N)cc2)c2cc3c(cc2CC1C)OCO3 (centres undefined)
- Relative potency (Mus musculus [1]): 1.02

Structure (SMILES): CC1Cc2cc3c(cc2C(c2ccc(N)cc2)=NN1C(=O)CN)OCO3 (centres undefined)
- Relative potency (Rattus norvegicus [2]): 0.1
- Relative potency (Mus musculus [1]): 0

Structure (SMILES): CCC(=O)N1N=C(c2ccc(N)cc2)c2cc3c(cc2CC1C)OCO3 (centres undefined)
- Relative potency (Rattus norvegicus [2]): 1.55
- Relative potency (Mus musculus [1]): 2.55

Structure (SMILES): CC1Cc2cc3c(cc2C(c2ccc(N)cc2)=NN1C=O)OCO3 (centres undefined)
- Relative potency (Rattus norvegicus [2]): 0.44
- Relative potency (Mus musculus [1]): 1.72

Structure (SMILES): CCCCNC(=O)N1N=C(c2ccc(N)cc2)c2cc3c(cc2CC1C)OCO3 (centres undefined)
- Relative potency (Rattus norvegicus [2]): 0.65
- Relative potency (Mus musculus [1]): 0.35

Structure (SMILES): CC1=NN=C(c2ccc(N)cc2)c2cc3c(cc2C1)OCO3 [GYKI-52466]
- IC50 (Rattus norvegicus [3]): 29.5 µM
- ED50 (Mus musculus [4]): 30.6 mg/kg
- ED50 (Mus musculus [5]): 45.1 mg/kg
- ED50 (Mus musculus [6]): 107 mg/kg

Structure (SMILES): CNC(=O)N1N=C(c2ccc(N)cc2)c2cc3c(cc2CC1C)OCO3 (centres undefined) [GYKI-53655]
- IC50 (Mus musculus [7]): 12 µM
- Relative potency (Rattus norvegicus [2]): 2.46
- ED50 (Mus musculus [8]): 8.4 mg/kg
- Relative potency (Mus musculus [1]): 4.39

Structure (SMILES): CC(=O)N1N=C(c2ccc(N)cc2)c2cc3c(cc2C[C@H]1C)OCO3 [TALAMPANEL]
- Relative potency (Rattus norvegicus [2]): 1.12
- Relative potency (Mus musculus [1]): 2.74
